Experimental data: patent publication US9096591B2, “Tetracyclic compounds” (Medivation Technologies, Inc., priority 2007, dated 2015)

What was measured:
[1] = target: T1, human recombinant adrenergic α1D receptor (Homo sapiens, UniProt P25100); assay: Adrenergic α1D radioligand binding ([3H]Prozosin); set-up: Inhibition of ligand binding, Adren. alpha1D: concentration or dose not given beside the values; conditions: for Inhibition of ligand binding, Adren. alpha1D: percent inhibition of specific binding; for inhibition at 1 µM: compounds screened at 1 μM, read-out: Inhibition of ligand binding, Adren. alpha1D (percent inhibition of specific binding)
T1 construct: expressed in transfected cells; host or cells: HEK-293 cells
T1 sequence (P25100 1-572): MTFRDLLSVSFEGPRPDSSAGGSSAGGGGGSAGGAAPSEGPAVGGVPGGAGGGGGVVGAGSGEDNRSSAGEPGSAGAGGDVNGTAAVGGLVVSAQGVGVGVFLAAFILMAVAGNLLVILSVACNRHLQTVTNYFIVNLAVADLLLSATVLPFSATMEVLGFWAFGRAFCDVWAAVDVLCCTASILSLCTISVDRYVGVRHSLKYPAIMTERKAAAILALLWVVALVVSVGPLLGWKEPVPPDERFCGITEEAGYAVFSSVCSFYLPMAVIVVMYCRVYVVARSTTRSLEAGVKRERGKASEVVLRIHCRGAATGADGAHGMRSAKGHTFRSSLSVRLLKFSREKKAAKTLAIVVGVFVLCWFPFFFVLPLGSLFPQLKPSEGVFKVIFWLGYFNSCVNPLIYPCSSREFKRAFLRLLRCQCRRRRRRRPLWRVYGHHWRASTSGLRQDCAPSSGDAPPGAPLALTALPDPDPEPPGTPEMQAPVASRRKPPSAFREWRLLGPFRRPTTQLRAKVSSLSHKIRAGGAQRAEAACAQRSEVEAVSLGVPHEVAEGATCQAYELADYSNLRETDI
Experimental: Compounds of invention were incubated with 0.6 nM [^3H]Prozosin for 60 minutes at 25° C. Non-specific binding was estimated in the presence of 10 μM phentolamine. Receptor proteins were filtered and washed, the filters were then counted to determine [^3H]Prozosin specifically bound. […] Biochemical assay results are presented as the percent inhibition of specific binding in Table 6.

[2] = target: T2, human recombinant dopamine D2L receptor (Homo sapiens, UniProt P14416); assay: Dopamine D2L radioligand binding ([3H]Spiperone); conditions: for Inhibition of ligand binding, Dop. D2L: percent inhibition of specific binding; for inhibition at 1 µM: compounds screened at 1 μM, read-out: Inhibition of ligand binding, Dop. D2L (percent inhibition of specific binding)
T2 construct: expressed in transfected cells; host or cells: CHO cells
T2 sequence (P14416 whole entry): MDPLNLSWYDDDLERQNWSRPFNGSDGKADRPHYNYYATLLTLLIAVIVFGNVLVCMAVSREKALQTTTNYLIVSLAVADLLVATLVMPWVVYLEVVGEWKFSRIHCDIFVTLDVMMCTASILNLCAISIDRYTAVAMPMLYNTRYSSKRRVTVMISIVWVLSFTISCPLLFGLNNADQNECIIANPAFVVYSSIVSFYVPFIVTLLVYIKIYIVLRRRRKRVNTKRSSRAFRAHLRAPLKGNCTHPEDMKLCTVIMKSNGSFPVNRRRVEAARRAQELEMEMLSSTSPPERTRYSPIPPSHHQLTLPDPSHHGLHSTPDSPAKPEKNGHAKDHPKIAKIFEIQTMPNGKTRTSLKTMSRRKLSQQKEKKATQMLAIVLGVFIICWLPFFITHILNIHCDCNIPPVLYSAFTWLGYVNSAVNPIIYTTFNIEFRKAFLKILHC
Experimental: Non-specific binding was estimated in the presence of 10 μM Haloperidol. Receptor proteins were filtered and washed, the filters were then counted to determine [^3H]Spiperone specifically bound. […] Biochemical assay results are presented as the percent inhibition of specific binding in Table 6.

[3] = target: T3, human recombinant serotonin (5-Hydroxytryptamine) 5-HT2A receptor (Homo sapiens, UniProt P28223); assay: Serotonin 5-HT2A radioligand binding ([3H]Ketanserin); conditions: for Inhibition of ligand binding, Ser. 5-HT2A: percent inhibition of specific binding; for inhibition at 1 µM: read-out: Inhibition of ligand binding, Ser. 5-HT2A (percent inhibition of specific binding)
T3 construct: expressed in transfected cells; host or cells: CHO-K1 cells
T3 sequence (P28223 whole entry): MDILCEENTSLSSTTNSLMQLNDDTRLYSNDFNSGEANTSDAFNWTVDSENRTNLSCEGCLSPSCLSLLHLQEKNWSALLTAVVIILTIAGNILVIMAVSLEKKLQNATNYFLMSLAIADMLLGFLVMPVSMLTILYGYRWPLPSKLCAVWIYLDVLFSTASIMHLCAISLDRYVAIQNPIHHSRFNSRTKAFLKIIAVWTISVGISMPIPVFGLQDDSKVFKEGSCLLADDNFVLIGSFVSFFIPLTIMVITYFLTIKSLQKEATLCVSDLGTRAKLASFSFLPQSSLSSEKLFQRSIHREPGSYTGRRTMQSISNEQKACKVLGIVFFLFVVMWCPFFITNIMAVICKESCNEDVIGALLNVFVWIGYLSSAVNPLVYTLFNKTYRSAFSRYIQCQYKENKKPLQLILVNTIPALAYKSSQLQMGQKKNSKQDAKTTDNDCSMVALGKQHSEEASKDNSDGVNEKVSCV
Experimental: (§1) Compounds of the invention were incubated with 0.5 nM [^3H]Ketanserin for 60 minutes at 25° C. Non-specific binding was estimated in the presence of 1 μM Mianserin. Receptor proteins were filtered and washed, the filters were then counted to determine [^3H]Ketanserin specifically bound. […] Biochemical assay results are presented as the percent inhibition of specific binding in Table 6.

[4] = target: T4, human recombinant serotonin (5-Hydroxytryptamine) 5-HT2C receptor (Homo sapiens, UniProt P28335); assay: Serotonin 5-HT2C radioligand binding ([3H]Mesulergine); set-up: Inhibition of ligand binding, Ser. 5-HT2C: concentration or dose not given beside the values; conditions: for Inhibition of ligand binding, Ser. 5-HT2C: percent inhibition of specific binding; for inhibition at 1 µM: compounds screened at 1 μM, read-out: Inhibition of ligand binding, Ser. 5-HT2C (percent inhibition of specific binding)
T4 construct: expressed in transfected cells; host or cells: CHO-K1 cells
T4 sequence (P28335 33-458): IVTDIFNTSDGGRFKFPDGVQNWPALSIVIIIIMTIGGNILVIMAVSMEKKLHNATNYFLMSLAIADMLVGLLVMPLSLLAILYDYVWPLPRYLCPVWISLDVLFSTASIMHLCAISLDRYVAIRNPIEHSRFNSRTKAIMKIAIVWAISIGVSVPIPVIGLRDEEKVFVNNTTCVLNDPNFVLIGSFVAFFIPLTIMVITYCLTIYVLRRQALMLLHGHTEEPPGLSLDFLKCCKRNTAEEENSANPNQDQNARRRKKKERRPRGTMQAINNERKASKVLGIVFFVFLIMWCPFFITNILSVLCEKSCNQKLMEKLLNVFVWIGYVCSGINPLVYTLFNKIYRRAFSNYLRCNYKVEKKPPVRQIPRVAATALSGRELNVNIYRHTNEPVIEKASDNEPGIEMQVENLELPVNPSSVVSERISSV
Experimental: as §1, with “1” for “0.5”, “[^3H]Mesulergine” for “[^3H]Ketanserin”

[5] = target: T5, Serotonin (5-Hydroxytryptamine) 5-HT7 (Homo sapiens, UniProt P34969); assay: Serotonin 5-HT7 radioligand binding ([3H]LSD); set-up: Inhibition of ligand binding, Ser. 5-HT7: concentration or dose not given beside the values; conditions: for Inhibition of ligand binding, Ser. 5-HT7: percent inhibition of specific binding; for inhibition at 1 µM: compounds screened at 1 μM, read-out: Inhibition of ligand binding, Ser. 5-HT7 (percent inhibition of specific binding)
T5 construct: expressed in transfected cells; host or cells: CHO cells
T5 sequence (P34969 whole entry): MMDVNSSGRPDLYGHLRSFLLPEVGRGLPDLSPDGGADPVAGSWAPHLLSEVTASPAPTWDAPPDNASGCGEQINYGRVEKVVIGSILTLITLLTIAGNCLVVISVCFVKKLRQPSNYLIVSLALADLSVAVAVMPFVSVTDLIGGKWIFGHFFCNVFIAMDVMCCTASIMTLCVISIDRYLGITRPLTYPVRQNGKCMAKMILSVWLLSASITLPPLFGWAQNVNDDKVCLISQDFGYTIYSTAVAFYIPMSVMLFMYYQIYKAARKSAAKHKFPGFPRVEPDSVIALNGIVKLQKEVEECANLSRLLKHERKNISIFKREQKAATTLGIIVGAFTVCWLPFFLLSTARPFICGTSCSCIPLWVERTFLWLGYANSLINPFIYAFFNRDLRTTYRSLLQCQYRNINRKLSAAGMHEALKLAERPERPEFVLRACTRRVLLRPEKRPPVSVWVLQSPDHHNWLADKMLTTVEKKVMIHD
Experimental: Lysergic acid diethylamide (LSD) for 2 hours at 25° C. […] Receptor proteins were filtered and washed, the filters were then counted to determine [^3H]LSD specifically bound. […] Biochemical assay results are presented as the percent inhibition of specific binding in Table 6.

SMILES | Inhibition of ligand binding, Adren. alpha1D [1] [%] | Inhibition of ligand binding, Dop. D2L [2] [%] | Inhibition of ligand binding, Ser. 5-HT2A [3] [%] | Inhibition of ligand binding, Ser. 5-HT2C [4] [%] | Inhibition of ligand binding, Ser. 5-HT7 [5] [%] | inhibition at 1 µM [1] [%] | inhibition at 1 µM [2] [%] | inhibition at 1 µM [3] [%] | inhibition at 1 µM [4] [%] | inhibition at 1 µM [5] [%]
Cc1ccc2c(c1)c1c(n2CCc2ccc(F)cc2)CCN(C)C1 [Compound 33, 5-(4-fluorophenethyl)-2,3,4,5-tetrahydro-2,8-dimethyl-1H-pyrido[4,3-b]indole] | 88 | 88 | 97 | 95 | 91 |  |  |  |  | 
Cc1ccc2c(c1)c1c(n2CCc2ccccc2F)CCN(C)C1 [Compound 34, 5-(2-fluorophenethyl)-2,3,4,5-tetrahydro-2,8-dimethyl-1H-pyrido[4,3-b]indole] | 76 | 88 | 99 | 96 | 97 |  |  |  |  | 
CN1CCc2c(c3cc(Cl)ccc3n2CCc2ccccc2)C1 [Compound 36, 8-chloro-2,3,4,5-tetrahydro-2-methyl-5-phenethyl-1H-pyrido[4,3-b]indole] | 87 | 92 | 98 | 94 | 99 |  |  |  |  | 
Cc1ccc2c(c1)c1c(n2CCC2CCCCC2)CCN(C)C1 [Compound 163, 5-(2-cyclohexylethyl)-2,3,4,5-tetrahydro-2,8-dimethyl-1H-pyrido[4,3-b]indole] | 49 | 36 | 92 | 99 | 95 |  |  |  |  | 
Cc1ccc2c(c1)c1c(n2CCc2nc(-c3ccccc3)cs2)CCN(C)C1 [Compound C1-5] |  |  |  |  |  | 92 | 36 | 97 | 93 | 93
COc1ccc2c(c1)c1c(n2CCc2nc(-c3ccccc3)cs2)CCN(C)C1 [Compound C1-6] |  |  |  |  |  | 72 | 29 | 84 | 90 | 57
CN1CCc2c(c3cc(F)ccc3n2CCc2nc(-c3ccccc3)cs2)C1 [Compound C1-7] |  |  |  |  |  | 66 | 25 | 96 | 91 | 90
CN1CCc2c(c3ccccc3n2CCc2noc(-c3ccccc3)n2)C1 [Compound C4-1] |  |  |  |  |  | 60 | 14 | 96 | 91 | 88
Cc1ccc2c(c1)c1c(n2CCc2noc(-c3ccccc3)n2)CCN(C)C1 [Compound C4-4] |  |  |  |  |  | 92 | 46 | 100 | 98 | 96
CN1CCc2c(c3cc(Cl)ccc3n2CCc2noc(-c3ccccc3)n2)C1 [Compound C4-6] |  |  |  |  |  | 84 | 36 | 99 | 94 | 90
